Experiment [1] deals with Escherichia coli (E. Coli, ATCC 25922). Particulars: Escherichia coli (ATCC 25922), antibiotic alone.
Experiment [2] has the same test system. The experiment is described as follows: microbe, parasite or virus in culture. Particulars: ATCC25922, 24 h.
For experiment [3], the system named is Klebsiella pneumoniae (KPC, ATCC BAA-1705). The experiment is described as follows: microbe, parasite or virus in culture. Particulars: ATCCBAA1705, 24 h, read-out: MIC of antibiotic.
The test system is the same in experiment [4]. Particulars: Klebsiella pneumoniae (ATCC BAA-1705), antibiotic alone; for MIC of antibiotics: Table 26.
Experiment [5] shares this test system. The experiment is described as follows: microbe, parasite or virus in culture. Particulars: ATCCBAA1705, 24 h.
For experiment [6], the system named is Methicillin-resistant Staphylococcus aureus MRSA (ATCC BAA-1556). The experiment is described as follows: microbe, parasite or virus in culture. Particulars: ATCCBAA1556|MRSA, 24 h.
Experiment [7] has as its system Pseudomonas aeruginosa (PSA, ATCC 27883). The experiment is described as follows: Synergy checkerboard assay (FIC index). The format is cell-based. Particulars: Pseudomonas aeruginosa (ATCC 27883), antibiotic alone; for MIC: ATCC27883, 24 h.
Experiment [8] shares this test system. Kind of experiment: microbe, parasite or virus in culture. Particulars: ATCC27883, 24 h.
Experiment [9] deals with Pseudomonas aeruginosa (ATCC 10145).
Experiment [10] has as its system KPC.
The test system of experiment [11] is PSA.
Experiment [12] relates to E. coli.
Experiment [13] relates to Methicillin-resistant Staphylococcus aureus MRSA (ATCC BAA-1556).
In experiment [14] the test system is Pseudomonas aeruginosa (PSA, ATCC 27883).
Experiment [15] deals with Pseudomonas aeruginosa (ATCC BAA-1744). Particulars: Pseudomonas aeruginosa (ATCC BAA-1744).
Experiment [16] concerns Klebsiella pneumoniae (KPC, ATCC BAA-1705).
Experiment [17] has as its system Acinetobacter baumannii (ATCC BAA-1605). Particulars: Acinetobacter baumannii (ATCC BAA-1605).
The test system of experiment [18] is Escherichia coli (ATCC BAA-2452). Particulars: Escherichia coli (ATCC BAA-2452).
In experiment [19] the test system is Escherichia coli (E. Coli, ATCC 25922).
Experiment [20] concerns Klebsiella pneumoniae ATCC 13883. Particulars: Klebsiella pneumonia (ATCC 13883).
[21] abbreviates: read-out: Escherichia coli (ATCC 25922) MIC, Table 28, IFX-031, antibiotics alone and PHY-MIX (1:1 w/w).
The mark [22] stands for this setting: read-out: Escherichia coli (ATCC 25922) MIC, Table 29, [R6W4] (IFX-318), antibiotics alone and PHY-MIX (1:1 w/w).
Where [23] appears, read: read-out: Escherichia coli (ATCC 25922) MIC, Table 30, [R5W4K] (IFX-315), antibiotics alone and PHY-MIX (1:1 w/w).
The mark [24] stands for this setting: read-out: Escherichia coli (ATCC 25922) MIC, Table 31, [R5W4] (IFX-301), antibiotics alone and PHY-MIX (1:1 w/w).
[25] abbreviates: read-out: Klebsiella pneumoniae (ATCC BAA-1705) MIC, Table 28, IFX-031, antibiotics alone and PHY-MIX (1:1 w/w).
Where [26] appears, read: read-out: Klebsiella pneumoniae (ATCC BAA-1705) MIC, Table 29, [R6W4] (IFX-318), antibiotics alone and PHY-MIX (1:1 w/w).
Setting [27] is: read-out: Klebsiella pneumoniae (ATCC BAA-1705) MIC, Table 30, [R5W4K] (IFX-315), antibiotics alone and PHY-MIX (1:1 w/w).
Setting [28] is: read-out: Klebsiella pneumoniae (ATCC BAA-1705) MIC, Table 31, [R5W4] (IFX-301), antibiotics alone and PHY-MIX (1:1 w/w).
[29] abbreviates: read-out: Pseudomonas aeruginosa (ATCC 27883) MIC, Table 28, IFX-031, antibiotics alone and PHY-MIX (1:1 w/w).
The mark [30] stands for this setting: read-out: Pseudomonas aeruginosa (ATCC 27883) MIC, Table 29, [R6W4] (IFX-318), antibiotics alone and PHY-MIX (1:1 w/w).
Where [31] appears, read: read-out: Pseudomonas aeruginosa (ATCC 27883) MIC, Table 30, [R5W4K] (IFX-315), antibiotics alone and PHY-MIX (1:1 w/w).
The mark [32] stands for this setting: read-out: Pseudomonas aeruginosa (ATCC 27883) MIC, Table 31, [R5W4] (IFX-301), antibiotics alone and PHY-MIX (1:1 w/w).
Setting [33] is: Table 28, IFX-031, antibiotics alone and PHY-MIX (1:1 w/w).
Setting [34] is: Table 29, [R6W4] (IFX-318), antibiotics alone and PHY-MIX (1:1 w/w).
[35] abbreviates: Table 30, [R5W4K] (IFX-315), antibiotics alone and PHY-MIX (1:1 w/w).
Setting [36] is: Table 31, [R5W4] (IFX-301), antibiotics alone and PHY-MIX (1:1 w/w).

Data on four compounds can be found in patent US20220289794A1, “SYNTHETIC ANTIMICROBIAL PEPTIDES” (priority 2019, published 2022).

≈ marks a conversion by molar mass, not a printed value. Like-named read-outs stand apart in the source and are kept apart here. Residues, ends and D or L forms follow the SMILES beside them. Bounds are passed on as bounds.

With `NC[C@H]1O[C@H](O[C@H]2[C@H](O)[C@@H](O[C@H]3O[C@H](CO)[C@@H](O)[C@H](N)[C@H]3O)[C@H](N)C[C@@H]2N)[C@H](O)[C@@H](O)[C@@H]1O` [Kanamycin], the MIC of antibiotic in [1] came to 32 µg/mL; in experiment [1] (Table 25), 32 µg/mL; in [1] (Table 26) it was 32 µg/mL; in experiment [4] it was 64 µg/mL. Besides, the MIC in [2] (setting [21]) is 32 µg/mL (≈ 66 µM); in experiment [2] (setting [22]), 32 µg/mL (≈ 66 µM); in experiment [2] (setting [23]) it was 32 µg/mL (≈ 66 µM); in [2] (setting [24]) it was 32 µg/mL (≈ 66 µM); in [3] it was 64 µg/mL; in experiment [5] (setting [25]), 64 µg/mL (≈ 132 µM). Besides, the MIC in [5] (setting [26]) is 64 µg/mL (≈ 132 µM); in experiment [5] (setting [27]), 64 µg/mL (≈ 132 µM); in [5] (setting [28]), 64 µg/mL (≈ 132 µM); in experiment [6] (read-out: MRSA (ATCC BAA-1556) MIC, Table 28, IFX-031, antibiotics alone and PHY-MIX (1:1 w/w)), greater than 64 µg/mL; in experiment [6] (read-out: MRSA (ATCC BAA-1556) MIC, Table 29, [R6W4] (IFX-318), antibiotics alone and PHY-MIX (1:1 w/w)), greater than 64 µg/mL; in experiment [6] (read-out: MRSA (ATCC BAA-1556) MIC, Table 30, [R5W4K] (IFX-315), antibiotics alone and PHY-MIX (1:1 w/w)) it was greater than 64 µg/mL. Moreover, the MIC in experiment [6] (read-out: MRSA (ATCC BAA-1556) MIC, Table 31, [R5W4] (IFX-301), antibiotics alone and PHY-MIX (1:1 w/w)) is greater than 64 µg/mL; in experiment [7] (Table 25), 256 µg/mL; in experiment [8] (setting [29]), greater than 64 µg/mL; in [8] (setting [30]) it was greater than 64 µg/mL; in experiment [8] (setting [31]), greater than 64 µg/mL; in experiment [8] (setting [32]), greater than 64 µg/mL. Besides, the MIC of antibiotics in [4] stood at 64 µg/mL.
`C[C@H]1COc2c(N3CCN(C)CC3)c(F)cc3c(=O)c(C(=O)O)cn1c23` [Levofloxacin]: the MIC of antibiotic in experiment [1] is 64 µg/mL; in experiment [1] (Table 25), 64 µg/mL; in experiment [1] (Table 26) it was 64 µg/mL; in [4] it was 64 µg/mL; in experiment [7] (Table 26) it was 1 µg/mL. Also, the MIC came out at 16 µg/mL (≈ 44.3 µM) in experiment [2] (setting [21]); 64 µg/mL (≈ 177 µM) in experiment [2] (setting [22]); 64 µg/mL (≈ 177 µM) in experiment [2] (setting [23]); 64 µg/mL (≈ 177 µM) in experiment [2] (setting [24]); 64 µg/mL in experiment [3]; 32 µg/mL (≈ 88.6 µM) in experiment [5] (setting [25]). The MIC in experiment [5] (setting [26]) worked out at 64 µg/mL (≈ 177 µM); in [5] (setting [27]), 64 µg/mL (≈ 177 µM); in experiment [5] (setting [28]), 64 µg/mL (≈ 177 µM); in experiment [7] (Table 25), 1 µg/mL; in experiment [8] (setting [29]), 1 µg/mL (≈ 2.77 µM); in [8] (setting [30]), 1 µg/mL (≈ 2.77 µM). In addition, the MIC in [8] (setting [31]) and in experiment [8] (setting [32]) was 1 µg/mL (≈ 2.77 µM) throughout.
Take `N=C(N)NCCC[C@@H]1NC(=O)[C@H](CCCNC(=N)N)NC(=O)[C@H](CCCNC(=N)N)NC(=O)[C@H](CCCNC(=N)N)NC(=O)[C@H](Cc2c[nH]c3ccccc23)NC(=O)[C@H](Cc2c[nH]c3ccccc23)NC(=O)[C@H](Cc2c[nH]c3ccccc23)NC(=O)[C@H](Cc2c[nH]c3ccccc23)NC(=O)[C@H](CCCNC(=N)N)NC(=O)[C@H](CCCNC(=N)N)NC1=O` [[R6W4] IFX-301] (cyclo(RRRRRRWWWW)): the MIC worked out at 32 µg/mL (≈ 19 µM) in experiment [9] (ATCC 10145), 64 µg/mL (≈ 38.1 µM) in experiment [10], 16 µg/mL (≈ 9.51 µM) in experiment [11] and 32 µg/mL (≈ 19 µM) in [12].
On to Polymyxin, for which the “MRSA (ATCC BAA-1556) MIC” value in [13] (setting [33]), in experiment [13] (setting [34]), in experiment [13] (setting [35]) and in [13] (setting [36]) was 64 µg/mL throughout. Also, the MIC of antibiotic came out at 2 µg/mL in experiment [1]; 2 µg/mL in experiment [1] (Table 25); 2 µg/mL in [1] (Table 26); 1 µg/mL in experiment [4]; 1 µg/mL in [4] (Table 25); 1 µg/mL in experiment [7] (Table 25). Further, in [7] (Table 26), the MIC of antibiotic turned out to be 1 µg/mL. Further, the “Polymyxin MIC” value was determined as 2 µg/mL in [1] (Table 27) and 0.5 µg/mL in experiment [4] (Table 27). Also, the “Pseudomonas aeruginosa (ATCC 27883) MIC” value in [14] (setting [33]), in [14] (setting [34]), in experiment [14] (setting [35]) and in experiment [14] (setting [36]) was 1 µg/mL throughout. In addition, the MIC in experiment [15] (Table 35) came to 2 µg/mL; in experiment [15] (Table 36), 2 µg/mL; in experiment [17] (Table 35), 1 µg/mL; in experiment [17] (Table 36), 1 µg/mL; in experiment [18] (Table 35) it was 1 µg/mL; in experiment [18] (Table 36) it was 1 µg/mL. Besides, the MIC was 2 µg/mL in [9] (Table 35, Pseudomonas aeruginosa (ATCC 10145)); 2 µg/mL in experiment [9] (Table 36, Pseudomonas aeruginosa (ATCC 10145)); 0.5 µg/mL in [10] (Table 35, Klebsiella pneumoniae (ATCC BAA-1705)); 0.5 µg/mL in [10] (Table 36, Klebsiella pneumoniae (ATCC BAA-1705)); 1 µg/mL in experiment [11] (Table 35, P. aeruginosa ATCC 27883); 1 µg/mL in experiment [11] (Table 36, P. aeruginosa ATCC 27883). In addition, the MIC is 1 µg/mL in [20] (Table 35); 1 µg/mL in experiment [20] (Table 36); 2 µg/mL in experiment [12] (Table 35, E. coli ATCC 25922); 2 µg/mL in experiment [12] (Table 36, E. coli ATCC 25922). Also, the “Klebsiella pneumoniae (ATCC BAA-1705) MIC” value in experiment [16] (setting [33]), in [16] (setting [34]), in experiment [16] (setting [35]) and in [16] (setting [36]) was 1 µg/mL in each case. The MIC of antibiotics in experiment [4] is 1 µg/mL. Further, the “Escherichia coli (ATCC 25922) MIC” value in experiment [19] (setting [33]), in [19] (setting [34]), in experiment [19] (setting [35]) and in experiment [19] (setting [36]) was 2 µg/mL in each case. The antibiotic MIC in experiment [7] (Table 27) worked out at 1 µg/mL.
